Measurements: article PMC7799360, “Reprogramming immunosuppressive myeloid cells facilitates immunotherapy for colorectal cancer” (EMBO Molecular Medicine, 2020)
pIC50: −log10 of the molar value.

How the values were obtained:
[1] = molecular target: T1, CHRM1 (Homo sapiens, UniProt P11229); experiment: GPCR calcium flux assay; format: cell-based
T1 construct: Pharmaron (Beijing, China), contract laboratory

[2] = molecular target: HTR1B (Homo sapiens, UniProt P28222); experiment: LANCE Ultra cAMP assay
Sequence of HTR1B (P28222 whole entry): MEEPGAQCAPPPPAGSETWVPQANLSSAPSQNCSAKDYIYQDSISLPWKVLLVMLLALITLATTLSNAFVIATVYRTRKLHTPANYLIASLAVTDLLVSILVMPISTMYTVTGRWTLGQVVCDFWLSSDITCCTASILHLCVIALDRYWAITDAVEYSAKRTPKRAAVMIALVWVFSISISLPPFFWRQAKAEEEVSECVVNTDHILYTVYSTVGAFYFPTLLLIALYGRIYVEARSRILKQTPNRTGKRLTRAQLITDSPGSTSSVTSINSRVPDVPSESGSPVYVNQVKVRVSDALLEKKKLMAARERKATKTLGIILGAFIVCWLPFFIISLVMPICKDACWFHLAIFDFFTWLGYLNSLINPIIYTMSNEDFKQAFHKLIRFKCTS

[3] = molecular target: AODRA1 (Homo sapiens, UniProt P30542); experiment: LANCE Ultra cAMP assay
Sequence of AODRA1 (P30542 whole entry): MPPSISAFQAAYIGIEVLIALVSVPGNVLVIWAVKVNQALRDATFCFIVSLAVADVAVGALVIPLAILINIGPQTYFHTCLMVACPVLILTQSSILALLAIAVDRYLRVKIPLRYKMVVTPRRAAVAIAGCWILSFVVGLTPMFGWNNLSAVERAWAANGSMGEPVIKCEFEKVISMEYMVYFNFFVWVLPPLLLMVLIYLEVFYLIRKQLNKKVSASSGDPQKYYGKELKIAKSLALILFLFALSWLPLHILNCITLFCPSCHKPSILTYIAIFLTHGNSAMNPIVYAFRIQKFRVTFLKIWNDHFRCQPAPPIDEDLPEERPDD

[4] = molecular target: T2, ADORA2A (Homo sapiens, UniProt P29274); experiment: LANCE Ultra cAMP assay; format: cell-based
T2 construct: Pharmaron (Beijing, China) performed the assay
T2 sequence (P29274 whole entry, species assumed): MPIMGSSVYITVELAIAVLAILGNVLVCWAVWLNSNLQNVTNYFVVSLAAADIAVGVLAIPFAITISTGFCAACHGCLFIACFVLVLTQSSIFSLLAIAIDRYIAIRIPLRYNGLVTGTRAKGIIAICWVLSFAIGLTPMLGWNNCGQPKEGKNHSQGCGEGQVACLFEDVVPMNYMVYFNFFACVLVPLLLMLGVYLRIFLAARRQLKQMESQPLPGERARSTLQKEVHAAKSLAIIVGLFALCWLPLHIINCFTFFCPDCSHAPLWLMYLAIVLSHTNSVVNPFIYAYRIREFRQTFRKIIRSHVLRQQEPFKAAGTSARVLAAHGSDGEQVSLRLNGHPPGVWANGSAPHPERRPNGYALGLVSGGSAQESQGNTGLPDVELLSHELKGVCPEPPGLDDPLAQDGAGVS

[5] = molecular target: DRD2 (Homo sapiens, UniProt P14416); experiment: LANCE Ultra cAMP assay
Sequence of DRD2 (P14416 whole entry, species assumed): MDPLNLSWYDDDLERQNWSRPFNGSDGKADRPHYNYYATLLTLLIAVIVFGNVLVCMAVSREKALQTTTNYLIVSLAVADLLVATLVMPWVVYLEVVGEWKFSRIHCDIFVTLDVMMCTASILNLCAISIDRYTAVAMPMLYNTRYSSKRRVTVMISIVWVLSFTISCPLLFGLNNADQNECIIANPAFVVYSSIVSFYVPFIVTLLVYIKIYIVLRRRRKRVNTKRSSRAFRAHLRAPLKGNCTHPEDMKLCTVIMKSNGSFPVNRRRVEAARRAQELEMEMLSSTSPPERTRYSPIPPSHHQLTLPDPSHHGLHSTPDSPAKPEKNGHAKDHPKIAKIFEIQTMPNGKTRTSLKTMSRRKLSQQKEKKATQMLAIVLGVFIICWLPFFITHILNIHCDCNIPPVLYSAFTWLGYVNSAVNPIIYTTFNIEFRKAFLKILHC

[6] = molecular target: CB1 (Homo sapiens, UniProt P21554); experiment: LANCE Ultra cAMP assay
Sequence of CB1 (P21554 whole entry, species assumed): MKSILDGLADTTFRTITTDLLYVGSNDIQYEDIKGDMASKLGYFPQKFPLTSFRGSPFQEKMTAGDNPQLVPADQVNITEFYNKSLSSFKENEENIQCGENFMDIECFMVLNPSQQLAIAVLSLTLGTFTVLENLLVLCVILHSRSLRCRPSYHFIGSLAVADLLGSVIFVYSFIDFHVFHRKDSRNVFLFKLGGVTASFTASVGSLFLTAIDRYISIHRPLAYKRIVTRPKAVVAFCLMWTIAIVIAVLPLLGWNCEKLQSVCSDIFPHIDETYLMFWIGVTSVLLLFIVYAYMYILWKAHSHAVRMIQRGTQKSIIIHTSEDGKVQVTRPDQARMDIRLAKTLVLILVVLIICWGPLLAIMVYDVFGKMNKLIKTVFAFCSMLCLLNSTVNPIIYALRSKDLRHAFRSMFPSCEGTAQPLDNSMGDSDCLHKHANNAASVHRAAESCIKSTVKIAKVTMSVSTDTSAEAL

[7] = molecular target: T3, OPRM1 (Homo sapiens, UniProt P35372); experiment: GPCR calcium flux assay; format: cell-based
T3 construct: Pharmaron (Beijing, China), contract laboratory
T3 sequence (P35372 whole entry, species assumed): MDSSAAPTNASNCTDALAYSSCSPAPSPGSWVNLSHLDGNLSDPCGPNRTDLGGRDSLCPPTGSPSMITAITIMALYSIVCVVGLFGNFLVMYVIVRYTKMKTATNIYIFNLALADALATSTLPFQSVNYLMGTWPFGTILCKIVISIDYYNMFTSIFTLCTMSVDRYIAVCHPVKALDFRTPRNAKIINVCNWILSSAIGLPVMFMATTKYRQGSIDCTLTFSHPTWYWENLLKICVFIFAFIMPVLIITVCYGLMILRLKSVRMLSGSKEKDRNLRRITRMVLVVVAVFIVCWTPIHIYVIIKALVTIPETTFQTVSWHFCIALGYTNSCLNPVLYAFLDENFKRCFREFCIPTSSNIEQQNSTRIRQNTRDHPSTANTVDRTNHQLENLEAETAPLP

[8] = molecular target: T4, human EP2 (Homo sapiens, UniProt P43116); experiment: PGE2-induced calcium flux assay in CHO-Gα16 cells; format: cell-based
T4 construct: host or cells: CHO-Gα16
T4 sequence (P43116 whole entry): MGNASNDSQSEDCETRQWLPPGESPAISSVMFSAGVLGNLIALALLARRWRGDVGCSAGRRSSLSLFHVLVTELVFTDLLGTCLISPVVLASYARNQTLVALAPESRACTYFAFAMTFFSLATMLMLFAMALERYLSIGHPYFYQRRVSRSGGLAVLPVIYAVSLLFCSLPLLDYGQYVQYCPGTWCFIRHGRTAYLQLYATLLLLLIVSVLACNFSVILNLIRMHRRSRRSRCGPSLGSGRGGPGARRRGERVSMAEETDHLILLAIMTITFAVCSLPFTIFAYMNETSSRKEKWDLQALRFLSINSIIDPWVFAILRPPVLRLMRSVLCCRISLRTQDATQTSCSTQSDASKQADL

Measured: pIC50

T1 sequence (P11229 whole entry, species assumed): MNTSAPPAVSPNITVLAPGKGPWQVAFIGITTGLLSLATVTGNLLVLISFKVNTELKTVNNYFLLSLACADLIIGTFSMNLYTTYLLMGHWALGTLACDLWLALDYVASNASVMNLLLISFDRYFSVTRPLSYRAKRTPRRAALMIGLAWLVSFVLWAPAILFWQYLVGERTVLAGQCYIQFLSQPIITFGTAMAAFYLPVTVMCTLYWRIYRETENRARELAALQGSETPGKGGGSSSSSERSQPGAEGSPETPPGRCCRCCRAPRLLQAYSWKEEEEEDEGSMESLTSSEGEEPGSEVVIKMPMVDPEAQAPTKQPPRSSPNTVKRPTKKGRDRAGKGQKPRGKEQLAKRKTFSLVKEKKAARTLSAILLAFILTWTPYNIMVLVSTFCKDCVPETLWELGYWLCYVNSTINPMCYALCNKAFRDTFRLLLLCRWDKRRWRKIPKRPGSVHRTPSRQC

C[C@H](NC(=O)c1c(Cc2ccc(F)cc2)sc2c1CCOC2)c1ccc(C(=O)O)cc1 [TP-16]
< 5.00: [1] | [2] | [3] | [4] | [5] | [6] | [7] | [8]
